Laboratory results from article PMC9403976, “Elucidating the path to Plasmodium prolyl-tRNA synthetase inhibitors that overcome halofuginone resistance” (Nature Communications, 2022).
Values joined by “and” are separate entries in the source; they are usually repeats but may differ in a detail not shown here. Identical values can stand only once. Like-named read-outs stand apart in the source and are kept apart here.

How the values were obtained:
[1] = target: T1, PfcProRS (Plasmodium falciparum, UniProt Q8I5R7); format: binding; conditions: for dose-response signal (normalized), SI Fig 8: single replicates, listed as NCP26 (3)
T1 construct: made in house; host or cells: E. coli SoluBL-21
T1 sequence (Q8I5R7 249-746): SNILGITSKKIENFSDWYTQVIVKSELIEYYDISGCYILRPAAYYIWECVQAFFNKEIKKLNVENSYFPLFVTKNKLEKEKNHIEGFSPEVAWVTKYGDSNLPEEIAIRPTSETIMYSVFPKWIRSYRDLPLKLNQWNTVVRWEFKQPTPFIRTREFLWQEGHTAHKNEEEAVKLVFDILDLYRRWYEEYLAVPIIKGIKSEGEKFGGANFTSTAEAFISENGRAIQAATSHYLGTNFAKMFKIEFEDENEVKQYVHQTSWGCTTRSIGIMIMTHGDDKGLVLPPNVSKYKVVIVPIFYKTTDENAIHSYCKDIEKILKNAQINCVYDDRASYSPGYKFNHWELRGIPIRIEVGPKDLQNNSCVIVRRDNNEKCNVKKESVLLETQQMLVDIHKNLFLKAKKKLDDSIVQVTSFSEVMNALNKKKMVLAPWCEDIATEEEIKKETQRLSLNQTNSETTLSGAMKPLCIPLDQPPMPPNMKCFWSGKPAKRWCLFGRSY

[2] = system: HFGR-I P. falciparum (elevated proline homeostasis and PfcProRS^L482H); assay: P. falciparum ABS growth assay, SYBR Green, 72 h, HFGR-I parasites; format: cell-based, Plasmodium falciparum; conditions: for parasite growth, replicate wells (Fig 1b): HFGR-I
How it was run: (§1)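 Asexual blood-stage Dd2 parasites, 1% parasitemia/1% hematocrit, RPMI + 0.5% Albumax; triplicate dose-response, 72 h. Readout SYBR Green 1 fluorescence. Controls: 10 μM dihydroartemisinin (kill), no compound (growth). EC50 values determined.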

[3] = system: halofuginone-induced P. falciparum (elevated proline homeostasis); assay: P. falciparum ABS growth assay, SYBR Green, 72 h, halofuginone-induced parasites; format: cell-based, Plasmodium falciparum; conditions: for parasite growth, replicate wells (Fig 1b): Halofuginone-Induced
How it was run: as §1

[4] = target: HsProRS (Homo sapiens, UniProt P07814); assay: TR-FRET ligand displacement assay with tracer MAT379 (CoraFluor-1-Halo and anti-His6 antibody formats); format: binding; parameters: made in house; host or cells: E. coli SoluBL-21; conditions: for TR-FRET dose-response, normalized signal (SI Fig 11): individual replicates; for TR-FRET dose-response, normalized signal (SI Fig 11) / normalized TR-FRET ligand displacement signal, dose-response replicates (SI Fig 6) / normalized TR-FRET signal (dose-response replicates): listed as NCP26 (3); for normalized TR-FRET signal (dose-response replicates): SI Fig 15
HsProRS, sequence (P07814 996-1512): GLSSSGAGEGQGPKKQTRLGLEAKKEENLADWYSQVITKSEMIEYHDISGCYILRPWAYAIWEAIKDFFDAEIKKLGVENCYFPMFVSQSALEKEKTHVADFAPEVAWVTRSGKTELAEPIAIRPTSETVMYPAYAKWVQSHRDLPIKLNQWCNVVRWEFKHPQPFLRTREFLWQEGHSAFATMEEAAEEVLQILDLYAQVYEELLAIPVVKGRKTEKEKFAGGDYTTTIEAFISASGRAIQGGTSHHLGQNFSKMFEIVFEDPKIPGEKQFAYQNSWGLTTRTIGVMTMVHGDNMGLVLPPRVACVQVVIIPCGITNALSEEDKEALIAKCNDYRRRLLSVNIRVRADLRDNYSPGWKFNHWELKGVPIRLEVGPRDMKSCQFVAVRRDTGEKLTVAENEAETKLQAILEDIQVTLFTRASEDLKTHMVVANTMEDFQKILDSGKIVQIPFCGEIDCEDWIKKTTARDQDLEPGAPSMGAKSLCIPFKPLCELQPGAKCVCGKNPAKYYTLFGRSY

[5] = Log[inhibitor] (M) -5.602, listed as NCP26 (3)
[6] = Log[inhibitor] (M) -6.806, listed as NCP26 (3)
[7] = Log[inhibitor] (M) -7.107, listed as NCP26 (3)
[8] = Log[inhibitor] (M) -7.408, listed as NCP26 (3)
[9] = Log[inhibitor] (M) -7.709, listed as NCP26 (3)
[10] = Log[inhibitor] (M) -8.010, listed as NCP26 (3)

## O=C(NC1Cc2ccccc2C1)c1nccnc1NC(=O)N1CCCCC1 [NCP26]
[1]; Log[inhibitor] (M) -10.097
  dose-response signal (normalized), SI Fig 8: 1.10E+00 and 1.01E+00 and 1.17E+00 and 9.78E-01 and 8.32E-01 and 1.04E+00
[1]; Log[inhibitor] (M) -10.585
  dose-response signal (normalized), SI Fig 8: 1.14E+00 and 1.18E+00 and 8.42E-01 and 8.75E-01 and 9.70E-01 and 1.02E+00
[1]; SI Fig 16a, values on -log scale
  PfcProRS -- best Kd: 8.599
[2]; Log[inhibitor] (M) -4.699
  parasite growth, replicate wells (Fig 1b): 0.00E+00
  dose-response value, Replicates 1-3 (SI Fig 2f): 0
[2]; Log[inhibitor] (M) -5.000
  parasite growth, replicate wells (Fig 1b): 0.00E+00
  dose-response value, Replicates 1-3 (SI Fig 2f): 0
[2]; Log[inhibitor] (M) -5.301
  parasite growth, replicate wells (Fig 1b): 0.00E+00
  dose-response value, Replicates 1-3 (SI Fig 2f): 0
[2]; [5]
  parasite growth, replicate wells (Fig 1b): 0.00E+00 and 1.00E+00 (2×)
[2]; Log[inhibitor] (M) -5.903
  parasite growth, replicate wells (Fig 1b): 0.00E+00
  dose-response value, Replicates 1-3 (SI Fig 2f): 0
[2]; Log[inhibitor] (M) -6.204
  parasite growth, replicate wells (Fig 1b): 0.00E+00
  dose-response value, Replicates 1-3 (SI Fig 2f): 0
[2]; Log[inhibitor] (M) -6.505
  parasite growth, replicate wells (Fig 1b): 1.00E+00
  dose-response value, Replicates 1-3 (SI Fig 2f): 1
[2]; [6]
  parasite growth, replicate wells (Fig 1b): 7.00E+00 (2×) and 6.00E+00
[2]; [7]
  parasite growth, replicate wells (Fig 1b): 3.90E+01 and 3.70E+01 (2×)
[2]; [8]
  parasite growth, replicate wells (Fig 1b): 9.90E+01 and 1.07E+02 and 1.00E+02
[2]; [9]
  parasite growth, replicate wells (Fig 1b): 1.11E+02 (2×) and 1.00E+02
[2]; [10]
  parasite growth, replicate wells (Fig 1b): 1.08E+02 and 1.07E+02 and 1.06E+02
[3]; Log[inhibitor] (M) -4.699, listed as NCP26 (3)
  parasite growth, replicate wells (Fig 1b): 0.00E+00 and -1.00E+00 and -2.00E+00
[3]; Log[inhibitor] (M) -5.000, listed as NCP26 (3)
  parasite growth, replicate wells (Fig 1b): 1.00E+00 (2×) and -1.00E+00
[3]; Log[inhibitor] (M) -5.301, listed as NCP26 (3)
  parasite growth, replicate wells (Fig 1b): -1.00E+00 (2×) and 7.00E+00
[3]; [5]
  parasite growth, replicate wells (Fig 1b): 1.00E+00 and 5.00E+00 and 0.00E+00
[3]; Log[inhibitor] (M) -5.903, listed as NCP26 (3)
  parasite growth, replicate wells (Fig 1b): 0.00E+00 and -1.00E+00 (2×)
[3]; Log[inhibitor] (M) -6.204
  parasite growth, replicate wells (Fig 1b): -2.00E+00
  dose-response value, Replicates 1-3 (SI Fig 2e): -2.0
[3]; Log[inhibitor] (M) -6.505, listed as NCP26 (3)
  parasite growth, replicate wells (Fig 1b): 0.00E+00 (2×) and -1.00E+00
[3]; [6]
  parasite growth, replicate wells (Fig 1b): 1.80E+01 (2×) and 1.90E+01
[3]; [7]
  parasite growth, replicate wells (Fig 1b): 9.50E+01 and 8.90E+01 and 9.10E+01
[3]; [8]
  parasite growth, replicate wells (Fig 1b): 1.05E+02 and 1.12E+02 and 1.07E+02
[3]; [9]
  parasite growth, replicate wells (Fig 1b): 1.09E+02 and 1.08E+02 and 1.10E+02
[3]; [10]
  parasite growth, replicate wells (Fig 1b): 9.90E+01 and 1.01E+02 and 1.04E+02
[4]; 100 μM proline vs no substrates
  fold increased affinity in the presence of proline: > 750 fold
[4]; HsProRS (KD [nM]) + ATP, 500 μM ATP, 250 nM MAT379
  Kd: 678 nM
[4]; HsProRS (KD [nM]) −, absence of substrates, 250 nM MAT379
  Kd: 271 nM
[4]; HsProRS - best Kd, SI Fig 16a, values on -log scale
  Kd: 0.351 nM
[4]; Log[inhibitor] (M) -5.000
  TR-FRET dose-response, normalized signal (SI Fig 11): 3.90E-02 and 5.46E-02 and 7.26E-02
  normalized TR-FRET ligand displacement signal, dose-response replicates (SI Fig 6): -7.74E-03 and 7.74E-03
[4]; Log[inhibitor] (M) -5.301
  TR-FRET dose-response, normalized signal (SI Fig 11): 8.66E-02 (2×) and 6.05E-02
  normalized TR-FRET ligand displacement signal, dose-response replicates (SI Fig 6): 1.56E-02 and 1.09E-02
[4]; Log[inhibitor] (M) -5.601
  TR-FRET dose-response, normalized signal (SI Fig 11): 1.54E-01 and 1.44E-01 and 1.56E-01
  normalized TR-FRET ligand displacement signal, dose-response replicates (SI Fig 6): 1.19E-01 and 1.01E-01
[4]; Log[inhibitor] (M) -5.902
  normalized TR-FRET ligand displacement signal, dose-response replicates (SI Fig 6): 2.03E-01 and 2.10E-01
[4]; Log[inhibitor] (M) -5.904
  TR-FRET dose-response, normalized signal (SI Fig 11): 2.33E-01 and 2.21E-01 and 2.09E-01
[4]; Log[inhibitor] (M) -6.203
  normalized TR-FRET ligand displacement signal, dose-response replicates (SI Fig 6): 4.13E-01 and 3.59E-01
[4]; Log[inhibitor] (M) -6.208
  TR-FRET dose-response, normalized signal (SI Fig 11): 3.61E-01 and 2.97E-01 and 3.35E-01
[4]; Log[inhibitor] (M) -6.509
  TR-FRET dose-response, normalized signal (SI Fig 11): 4.65E-01 and 4.29E-01 and 4.89E-01
[4]; Log[inhibitor] (M) -6.513
  normalized TR-FRET ligand displacement signal, dose-response replicates (SI Fig 6): 6.17E-01 and 6.51E-01
[4]; Log[inhibitor] (M) -6.796
  TR-FRET dose-response, normalized signal (SI Fig 11): 6.56E-01 and 6.91E-01 and 6.47E-01
  normalized TR-FRET ligand displacement signal, dose-response replicates (SI Fig 6): 7.87E-01 and 8.56E-01
[4]; Log[inhibitor] (M) -7.108
  TR-FRET dose-response, normalized signal (SI Fig 11): 8.29E-01 and 7.76E-01 and 7.86E-01
  normalized TR-FRET ligand displacement signal, dose-response replicates (SI Fig 6): 8.95E-01 and 9.07E-01
[4]; Log[inhibitor] (M) -7.405
  normalized TR-FRET ligand displacement signal, dose-response replicates (SI Fig 6): 9.57E-01 and 8.55E-01
[4]; Log[inhibitor] (M) -7.409
  TR-FRET dose-response, normalized signal (SI Fig 11): 9.33E-01 and 8.84E-01 and 8.96E-01
[4]; Log[inhibitor] (M) -7.710
  TR-FRET dose-response, normalized signal (SI Fig 11): 1.01E+00 and 8.77E-01 and 8.78E-01
[4]; Log[inhibitor] (M) -7.714
  normalized TR-FRET ligand displacement signal, dose-response replicates (SI Fig 6): 1.05E+00 and 9.22E-01
[4]; Log[inhibitor] (M) -8.000
  TR-FRET dose-response, normalized signal (SI Fig 11): 9.74E-01 and 9.83E-01 and 9.34E-01
  normalized TR-FRET ligand displacement signal, dose-response replicates (SI Fig 6): 1.02E+00 and 1.00E+00
[4]; Log[inhibitor] (M) -8.013
  normalized TR-FRET signal (Fig 2j): 3.80E-01 and 4.41E-01 and 3.90E-01
[4]; Log[inhibitor] (M) -8.301
  TR-FRET dose-response, normalized signal (SI Fig 11): 1.04E+00 and 9.70E-01 and 9.69E-01
[4]; Log[inhibitor] (M) -8.314
  normalized TR-FRET signal (Fig 2j): 5.85E-01 and 7.34E-01 and 6.18E-01
[4]; Log[inhibitor] (M) -8.331
  normalized TR-FRET ligand displacement signal, dose-response replicates (SI Fig 6): 1.04E+00 and 1.00E+00
  normalized TR-FRET signal (dose-response replicates): 9.93E-01 and 9.01E-01 and 8.86E-01
[4]; Log[inhibitor] (M) -8.574
  normalized TR-FRET ligand displacement signal, dose-response replicates (SI Fig 6): 1.00E+00 and 9.98E-01
[4]; Log[inhibitor] (M) -8.602
  TR-FRET dose-response, normalized signal (SI Fig 11): 1.02E+00 and 9.93E-01 and 9.50E-01
[4]; Log[inhibitor] (M) -8.615
  normalized TR-FRET signal (Fig 2j): 7.72E-01 and 8.28E-01 and 8.16E-01
[4]; Log[inhibitor] (M) -8.916
  normalized TR-FRET signal (Fig 2j): 9.01E-01 and 9.63E-01 and 9.82E-01
[4]; Log[inhibitor] (M) -9.000
  TR-FRET dose-response, normalized signal (SI Fig 11): 9.79E-01 and 9.82E-01 and 1.02E+00
[4]; Log[inhibitor] (M) -9.217
  normalized TR-FRET signal (Fig 2j): 9.20E-01 and 1.06E+00
[4]; Log[inhibitor] (M) -9.301
  TR-FRET dose-response, normalized signal (SI Fig 11): 1.04E+00 and 1.00E+00 and 9.65E-01
[4]; Log[inhibitor] (M) -4.99976
  normalized TR-FRET signal (dose-response replicates): 2.27E-01 and 3.58E-01 and 2.56E-01
[4]; Log[inhibitor] (M) -5.3009
  normalized TR-FRET signal (dose-response replicates): 5.51E-01 and 1.03E-01 and 3.27E-01
[4]; Log[inhibitor] (M) -5.60199
  normalized TR-FRET signal (dose-response replicates): 6.05E-01 and 4.05E-01 and 4.39E-01
[4]; Log[inhibitor] (M) -5.90248
  normalized TR-FRET signal (dose-response replicates): 4.42E-01 and 6.91E-01 and 6.09E-01
[4]; Log[inhibitor] (M) -6.20323
  normalized TR-FRET signal (dose-response replicates): 4.30E-01 and 8.03E-01 and 7.35E-01
[4]; Log[inhibitor] (M) -6.51347
  normalized TR-FRET signal (dose-response replicates): 8.28E-01 and 6.81E-01 and 6.14E-01
[4]; Log[inhibitor] (M) -6.79595
  normalized TR-FRET signal (dose-response replicates): 1.04E+00 and 6.14E-01 and 1.23E+00
[4]; Log[inhibitor] (M) -7.10794
  normalized TR-FRET signal (dose-response replicates): 8.29E-01 and 9.88E-01 and 1.04E+00
[4]; Log[inhibitor] (M) -7.40526
  normalized TR-FRET signal (dose-response replicates): 1.19E+00 and 8.56E-01 and 7.59E-01
[4]; Log[inhibitor] (M) -7.7137
  normalized TR-FRET signal (dose-response replicates): 9.63E-01 and 9.49E-01 and 1.37E+00
[4]; Log[inhibitor] (M) -8
  normalized TR-FRET signal (dose-response replicates): 8.45E-01 and 9.90E-01 and 8.83E-01
[4]; Log[inhibitor] (M) -8.57403
  normalized TR-FRET signal (dose-response replicates): 9.84E-01 and 9.89E-01 and 1.13E+00
[4]; Log[inhibitor] (M) -8.87506
  normalized TR-FRET signal (dose-response replicates): 9.25E-01 and 9.80E-01 and 7.66E-01
[4]; Log[inhibitor] (M) -9.17609
  normalized TR-FRET signal (dose-response replicates): 7.05E-01 and 1.05E+00 and 1.13E+00
